One block for each molecule: values may come before it. Activity calls are given as the source filed them. The rule behind the calls is not given here.
Experiments:
A549 [1] = test: Cytotoxicity against human A549 cells assessed as reduction in cell viability incubated for 24 hrs in dark by MTT assay; assay type: cell-based; conditions: A549, 24 h
MCF7 [2] = test: Cytotoxicity against human MCF7 cells assessed as reduction in cell viability incubated for 24 hrs in dark by MTT assay; assay type: cell-based; conditions: MCF7, 24 h
[3] = Drug localization in lysosome of human HT-29 cells at 0.5 uM measured after 1 hr in dark by Lyso-tracker based confocal laser scanning microscopy; assay type: ADME, subcellular; conditions: ht-29, 1 h
HT-29 [4] = test: Cytotoxicity against human HT-29 cells assessed as reduction in cell viability preincubated for 1 hr followed by light irradiation at 3.2 J/cm2 for 10 to 180 secs and measured after 24 hrs by MTT assay; assay type: functional, cell-based
A549 [5] = test: Ratio of IC50 for cytotoxicity against human A549 cells in dark to IC50 for cytotoxicity against human A549 cells in light at 3.2J/cm2
MCF7 [6] = test: Ratio of IC50 for cytotoxicity against human MCF7 cells in dark to IC50 for cytotoxicity against human MCF7 cells in light at 3.2J/cm2
[7] = Photostability of compound assessed as decrease in rate of photo decomposition at 5 uM irradiated with LED light (630 nm, 106 mW cm'-2) upto 12 mins by UV spectrophotometry
HT-29 [8] = test: Induction of ROS generation in human HT-29 cells at 0.5 uM incubated for 0.5 hrs followed by DCFH-DA addition for 0.5 hrs then irradiated with light for 30 sec and measured after 15 mins by flow cytometry; assay type: functional, cell-based
A549 [9] = test: Cytotoxicity against human A549 cells assessed as reduction in cell viability incubated for 1 hr followed by light irradiation at 3.2 J/cm2 for 30 sec and measured after 24 hrs by MTT assay; assay type: functional, cell-based; conditions: A549, light or radiation study
HT-29 [10] = test: Ratio of IC50 for cytotoxicity against human HT-29 cells in dark to IC50 for cytotoxicity against human HT-29 cells in light at 3.2J/cm2
[11] = Induction of singlet oxygen generation in EtOH assessed as singlet oxygen quantum yield irradiated with 12.8 J light for 2 mins by DPBF-based assay; assay type: functional
HT-29 [12] = test: Cytotoxicity against human HT-29 cells assessed as reduction in cell viability preincubated for 1 hr followed by light irradiation at 3.2 J/cm2 for 30 sec and measured after 24 hrs by MTT assay; assay type: functional, cell-based; conditions: HT-29, light or radiation study
MCF7 [13] = test: Cytotoxicity against human MCF7 cells assessed as reduction in cell viability incubated for 1 hr followed by light irradiation for 30 sec at 3.2 J/cm2 and measured after 24 hrs by MTT assay; assay type: functional, cell-based; conditions: MCF7, light or radiation study
HT-29 [14] = test: Cytotoxicity against human HT-29 cells assessed as reduction in cell viability incubated for 24 hrs in dark by MTT assay; assay type: cell-based; conditions: HT-29, 24 h
[15] = Drug uptake in nucleus of human HT-29 cells at 0.5 uM incubated for 5 hrs by Hoechst 33342 staining based fluorescence microscopy; assay type: ADME, cell-based; conditions: ht-29, 5 h
[16] = Toxicity in BALB/c mouse xenografted with human HT-29 cells assessed as damage in kidney at 2 mg/kg, iv after 2 hrs irradiated with light and measured on day 24; assay type: organism-based; conditions: in vivo
HT-29 [17] = test: Antitumor activity against human HT-29 cells xenografted in BALB/c mouse assessed as reduction in tumor growth at 2 mg/kg, iv after 2 hrs irradiated with light and measured on day 5; assay type: functional, organism-based
[18] = Half life in Sprague-Dawley rat at 2 mg/kg, iv measured upto 24 hrs by fluorescence based assay; assay type: ADME, organism-based; conditions: in vivo
[19] = Drug localization in lysosome of human HT-29 cells at 0.5 uM measured after 1 hr by LAMP1-GFP based confocal laser scanning microscopy; assay type: ADME, subcellular; conditions: ht-29, 1 h
WI-38 = test: Cytotoxicity against human WI38 cells assessed as reduction in cell viability incubated for 24 hrs in dark by MTT assay; assay type: cell-based; conditions: WI-38, 24 h
[20] = AUC (0 to infinity) in Sprague-Dawley rat at 2 mg/kg, iv measured upto 24 hrs by fluorescence based assay; assay type: ADME, organism-based; parameters: dose 2 mg/kg, route intravenous, time infinity; conditions: in vivo
[21] = Drug localization in lysosome of human WI38 cells at 0.5 uM measured after 1 hr by LAMP1-GFP based confocal laser scanning microscopy; assay type: ADME, subcellular; conditions: wi-38, 1 h
[22] = Toxicity in BALB/c mouse xenografted with human HT-29 cells assessed as damage on heart tissue at 2 mg/kg, iv after 2 hrs irradiated with light and measured on day 24; assay type: organism-based; conditions: in vivo
HT-29 [23] = test: Induction of morphological changes in nucleus of human HT-29 cells at 0.5 uM incubated in dark for 1 hr followed by irradiated with LED light for 30 sec and measured after 18 hrs by Hoechst 33342 staining based fluorescence microscopy; assay type: functional, cell-based
[24] = AUC (0 to t) in Sprague-Dawley rat at 2 mg/kg, iv measured upto 24 hrs by fluorescence based assay; assay type: ADME, organism-based; conditions: in vivo
[25] = Toxicity in BALB/c mouse xenografted with human HT-29 cells assessed as damage on liver at 2 mg/kg, iv after 2 hrs irradiated with light and measured on day 24; assay type: organism-based; conditions: in vivo
[26] = Clearance in Sprague-Dawley rat at 2 mg/kg, iv measured upto 24 hrs by fluorescence based assay; assay type: ADME, organism-based; conditions: in vivo
[27] = Toxicity in BALB/c mouse xenografted with human HT-29 cells assessed as damage in spleen at 2 mg/kg, iv after 2 hrs irradiated with light and measured on day 24; assay type: organism-based; conditions: in vivo
[28] = MRT (0 to infinity) in Sprague-Dawley rat at 2 mg/kg, iv measured upto 24 hrs by fluorescence based assay; assay type: ADME, organism-based; conditions: in vivo
HT-29 [29] = test: Induction of morphological changes in nucleus of human HT-29 cells at 0.5 uM incubated for 18 hrs in dark by Hoechst 33342 staining based fluorescence microscopy; assay type: cell-based; conditions: ht-29, 18 h
HT-29 [30] = test: Antitumor activity against human HT-29 cells xenografted in BALB/c mouse assessed as reduction in tumor volume at 2 mg/kg, iv after 2 hrs irradiated with light and measured on day 5; assay type: functional, organism-based
HT-29 [31] = test: Antitumor activity against human HT-29 cells xenografted in BALB/c mouse assessed as reduction in tumor volume at 2 mg/kg, iv after 2 hrs irradiated with light and measured on day 24; assay type: functional, organism-based
[32] = Drug localization in mitochondria of human Ht-29 cells at 0.5 uM measured after 1 hr by Mito-GFP based confocal laser scanning microscopy; assay type: ADME; conditions: ht-29, 1 h
[33] = Toxicity in BALB/c mouse xenografted with human HT-29 cells assessed as damage on lung at 2 mg/kg, iv after 2 hrs irradiated with light and measured on day 24; assay type: organism-based; conditions: in vivo
[34] = Drug localization in mitochondria of human WI38 cells at 0.5 uM measured after 1 hr by Mito-GFP based confocal laser scanning microscopy; assay type: ADME; conditions: wi-38, 1 h
[35] = Cmax in Sprague-Dawley rat at 2 mg/kg, iv measured upto 24 hrs by fluorescence based assay; assay type: ADME, organism-based; parameters: dose 2 mg/kg, route intravenous; conditions: in vivo
HT-29 [36] = test: Potency index, ratio of IC50 of methylene blue to IC50 of compound for cytotoxicity against human HT-29 cells assessed as reduction in cell viability incubated for 1 hr followed by light irradiation at 3.2 J/cm2 for 30 sec and measured after 24 hrs by MTT assay; assay type: functional

Drug uptake [3]: Active
Compound: CCN(CC)c1ccc2nc3c(cc(N)c4nc(C)ccc43)[s+]c2c1.[Cl-]
IC50 (A549 [1]): 6500 nM
IC50 (MCF7 [2]): 1100 nM
Activity (HT-29 [4]): Active
Ratio IC50 (A549 [5]): 3.6
Ratio IC50 (MCF7 [6]): 2.2
Stability [7]: Stable
Activity (HT-29 [8]): Active
IC50 (A549 [9]): 1800 nM
Ratio IC50 (HT-29 [10]): 21.9
Activity [11]: 0.08 to 0.14
IC50 (HT-29 [12]): 210 nM
IC50 (MCF7 [13]): 500 nM
IC50 (HT-29 [14]): 4600 nM

Drug uptake [3]: Active
Compound: CCCCCCCNc1cc2[s+]c3cc(N(CC)CC)ccc3nc2c2ccc(C)nc12.[Cl-]
IC50 (A549 [1]): 17100 nM
IC50 (MCF7 [2]): 14400 nM
Activity (HT-29 [4]): Active
Ratio IC50 (A549 [5]): 4.6
Ratio IC50 (MCF7 [6]): 3.8
Stability [7]: Stable
Activity (HT-29 [8]): Active
IC50 (A549 [9]): 3700 nM
Ratio IC50 (HT-29 [10]): 8.47
Activity [11]: 0.08 to 0.14
IC50 (HT-29 [12]): 1050 nM
IC50 (MCF7 [13]): 3800 nM
IC50 (HT-29 [14]): 8890 nM

Drug uptake [15]: Active
Compound: CN(C)c1ccc2nc3ccc(N(C)C)cc3[s+]c2c1.[Cl-] [METHYLENE BLUE ANHYDROUS]
IC50 (HT-29 [12]): 9200 nM
IC50 (HT-29 [14]): > 10000 nM

Drug uptake [15]: Not Active
half-life [18]: 7.81 h
Drug uptake [19]: Active
Drug uptake [3]: Active
AUC [20]: 4550 ng·h/mL
Drug uptake [21]: Active
AUCt [24]: 3.78 mg/h/L
clearance [26]: 7.33 mL/min/kg
MRT inf [28]: 12.4 h
Drug uptake [32]: Not Active
Drug uptake [34]: Not Active
Cmax [35]: 2180 ng/mL
Compound: CCCNc1cc2[s+]c3cc(N(CC)CC)ccc3nc2c2ccc(C)nc12.[Cl-]
Activity [16]: Non-Toxic
IC50 (A549 [1]): 3100 nM
Activity (HT-29 [17]): Active
IC50 (MCF7 [2]): 1900 nM
IC50 (WI-38): > 10000 nM
Activity [22]: Non-Toxic
Activity (HT-29 [4]): Active
Activity (HT-29 [23]): Active
Activity [25]: Non-Toxic
Ratio IC50 (A549 [5]): 9.1
Ratio IC50 (MCF7 [6]): 5.1
Stability [7]: Stable
Activity (HT-29 [8]): Active
Activity [27]: Non-Toxic
IC50 (A549 [9]): 340 nM
Activity (HT-29 [29]): Non-Toxic
Activity (HT-29 [30]): Active
Ratio IC50 (HT-29 [10]): 53.8
Activity (HT-29 [31]): Active
Activity [33]: Non-Toxic
Activity [11]: 0.08 to 0.14
IC50 (HT-29 [12]): 39 nM
IC50 (MCF7 [13]): 370 nM
Ratio IC50 (HT-29 [36]): 235
IC50 (HT-29 [14]): 2100 nM

From ChEMBL document CHEMBL4402596, “Pyridine-Embedded Phenothiazinium Dyes as Lysosome-Targeted Photosensitizers for Highly Efficient Photodynamic Antitumor Therapy” (J Med Chem, 2020)
